Article PMC11659602, “Discovering covalent cyclic peptide inhibitors of peptidyl arginine deiminase 4 (PADI4) using mRNA-display with a genetically encoded electrophilic warhead” (Communications Chemistry, 2024)
“And” between values parts separate entries of the source, which are not always exact repeats. Equal values may be shown once. Read-outs that look alike come from different tables or passages of the source. Each block holds one compound with its values, some of them ahead of it. Where a SMILES comes first, the peptide text is derived from it. Bridges are numbered along the chain shown (N, C = ends). [ ]: non-standard residue; d: D form. Orn(fluoroacetimidoyl) = N=C(CF)NCCC[C@H](N)C(=O)O

How the values were obtained:
Type in all cases: biochemical
[1] = biological target: T1, PADI4 (Homo sapiens, UniProt Q9UM07); experiment: COLDER inhibition assay, BAEE substrate, with or without 1 h preincubation; conditions: for IC50: COLDER; for remaining activity at 0.003 µM: peptide 0.003 µM; for remaining activity at 0.01 µM: peptide 0.01 µM; for remaining activity at 0.03 µM: peptide 0.03 µM; for remaining activity at 0.1 µM: peptide 0.1 µM; for remaining activity at 0.3 µM: peptide 0.3 µM; for remaining activity at 1 µM: peptide 1 µM; for remaining activity at 3 µM: peptide 3 µM
T1 construct: His6; made in house
T1 sequence (Q9UM07 whole entry): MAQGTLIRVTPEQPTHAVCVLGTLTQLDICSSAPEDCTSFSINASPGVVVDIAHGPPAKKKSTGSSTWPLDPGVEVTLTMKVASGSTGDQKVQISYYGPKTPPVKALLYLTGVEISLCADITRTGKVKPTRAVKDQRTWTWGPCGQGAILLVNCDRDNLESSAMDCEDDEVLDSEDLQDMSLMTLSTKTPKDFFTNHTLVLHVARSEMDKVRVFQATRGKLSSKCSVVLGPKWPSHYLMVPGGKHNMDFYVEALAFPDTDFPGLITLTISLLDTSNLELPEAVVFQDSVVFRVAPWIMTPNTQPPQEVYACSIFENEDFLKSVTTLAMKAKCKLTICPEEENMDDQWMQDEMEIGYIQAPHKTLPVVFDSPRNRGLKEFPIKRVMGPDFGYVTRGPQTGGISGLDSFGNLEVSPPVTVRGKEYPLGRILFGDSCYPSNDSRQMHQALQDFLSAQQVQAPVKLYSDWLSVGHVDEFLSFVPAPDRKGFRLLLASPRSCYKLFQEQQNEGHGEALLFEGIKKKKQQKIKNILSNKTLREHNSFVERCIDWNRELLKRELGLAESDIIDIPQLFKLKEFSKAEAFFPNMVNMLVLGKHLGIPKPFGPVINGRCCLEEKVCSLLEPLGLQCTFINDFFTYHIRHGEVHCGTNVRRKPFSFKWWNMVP
How it was run: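 50 nM His-PADI4 with peptide (final 0.1× the 0.03-500 µM series), 0.6 mg/mL BSA, 10 mM CaCl2 in 50 mM HEPES, 150 mM NaCl, 2 mM DTT, pH 7.5, with or without 1 h preincubation before 10 mM BAEE. After 30 min at rt, EDTA-quenched; citrulline read colorimetrically at 540 nm; mean ± SEM, ≥2 replicates.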

[2] = biological target: T2, PADI2 (Homo sapiens, UniProt Q9Y2J8); experiment: Incubation time-dependent COLDER assay, selectivity; conditions: for PADI2 activity normalised to 0.1% DMSO: quenched after 60 mins
T2 construct: His6; made in house
T2 sequence (Q9Y2J8 whole entry, species assumed): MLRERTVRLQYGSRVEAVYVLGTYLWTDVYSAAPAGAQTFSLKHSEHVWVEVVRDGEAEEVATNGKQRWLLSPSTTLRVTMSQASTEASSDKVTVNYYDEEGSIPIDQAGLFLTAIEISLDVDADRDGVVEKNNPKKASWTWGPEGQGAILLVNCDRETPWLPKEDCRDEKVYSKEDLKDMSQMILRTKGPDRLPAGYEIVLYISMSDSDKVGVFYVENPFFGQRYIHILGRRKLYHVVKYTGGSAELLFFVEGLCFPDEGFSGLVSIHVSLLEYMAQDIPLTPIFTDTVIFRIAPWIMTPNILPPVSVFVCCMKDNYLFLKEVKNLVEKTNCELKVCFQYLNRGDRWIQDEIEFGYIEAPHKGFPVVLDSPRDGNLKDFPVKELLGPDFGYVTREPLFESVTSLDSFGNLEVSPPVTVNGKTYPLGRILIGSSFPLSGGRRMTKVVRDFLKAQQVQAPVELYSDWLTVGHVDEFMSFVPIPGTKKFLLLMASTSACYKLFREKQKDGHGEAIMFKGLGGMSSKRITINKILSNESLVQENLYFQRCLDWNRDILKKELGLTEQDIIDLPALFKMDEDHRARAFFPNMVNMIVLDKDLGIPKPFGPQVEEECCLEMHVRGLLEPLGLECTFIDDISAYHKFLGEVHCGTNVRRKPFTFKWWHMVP
Procedure: (§1) To determine KI and kinact of covalent peptide inhibitors, COLDER assays were used[52]. Peptide dilutions were prepared using 5-fold dilutions from 500 µM and 300 µM to 0.8 µM and 2.4 µM, respectively, at 1% DMSO in COLDER buffer (50 mM HEPES, 150 mM NaCl and 2 mM DTT, pH 7.5). The 9 peptide dilutions were added to a 96-well plate, alongside a 1% DMSO control. An equal volume of 10 mM BAEE was added to each well and the solution was homogenised by pipette mixing. This was mixed with 50 nM His-PADI4, 0.6 mg/mL BSA and 10 mM CaCl2, in COLDER buffer, to bring the final volume to 300 µL in each well. Alternatively, His-PAD1 (100 nM) /His-PADI2 (100 nM) /His-PADI3 (250 nM) were used. For assays with PADI1 and PADI3, 10 mM N^α-benzoyl-L-arginine methyl […] (BAME) was used as the substrate instead of BAEE[48],[58],[59]. At 15-minute intervals, for 5 timepoints, 50 µL of solution was taken from each well and quenched with 10 µL EDTA (300 mM). 200 µL of COLDER solution containing 20 mM diacetyl monoxime/2,3-butanedione monoxime (Merck), 0.5 mM thiosemicarbazide (Acros Organics), 2.25 M H3PO4, 4.5 M H2SO4 and 1.5 mM NH4Fe(SO4)2.12H2O was added to each well. Samples were incubated for 20 min at 95 °C before measuring absorbance at 540 nm on a CLARIOstar Plus (BMG LABTECH). IC50 values for each time point were determined using non-linear regression with GraphPad Prism. Incubation time–dependent potency IC50(t) against incubation time was fitted to the Krippendorff equation (below) to determine KI and kinact using a Python script[53],[59]. […] IC50t=KI1+S/KM⋅2−2e^−ηIC50⋅kinact⋅t/ηIC50⋅kinact⋅t−1 WhereηIC50=IC50t/KI1+S/KM+IC50t

[3] = biological target: T3, PADI3 (Homo sapiens, UniProt Q9ULW8); experiment: as above; conditions: for PADI3 activity normalised to 0.1% DMSO: quenched after 60 mins; for selectivity for PADI4 over PADI3: COLDER; for PADI3 activity, normalised (Figure S11c): same values as column 60 of Figure S11b
T3 construct: PADI3 (residue 1-664); made in house; host or cells: E. coli NiCo21(DE3)
T3 sequence (Q9ULW8 1-664): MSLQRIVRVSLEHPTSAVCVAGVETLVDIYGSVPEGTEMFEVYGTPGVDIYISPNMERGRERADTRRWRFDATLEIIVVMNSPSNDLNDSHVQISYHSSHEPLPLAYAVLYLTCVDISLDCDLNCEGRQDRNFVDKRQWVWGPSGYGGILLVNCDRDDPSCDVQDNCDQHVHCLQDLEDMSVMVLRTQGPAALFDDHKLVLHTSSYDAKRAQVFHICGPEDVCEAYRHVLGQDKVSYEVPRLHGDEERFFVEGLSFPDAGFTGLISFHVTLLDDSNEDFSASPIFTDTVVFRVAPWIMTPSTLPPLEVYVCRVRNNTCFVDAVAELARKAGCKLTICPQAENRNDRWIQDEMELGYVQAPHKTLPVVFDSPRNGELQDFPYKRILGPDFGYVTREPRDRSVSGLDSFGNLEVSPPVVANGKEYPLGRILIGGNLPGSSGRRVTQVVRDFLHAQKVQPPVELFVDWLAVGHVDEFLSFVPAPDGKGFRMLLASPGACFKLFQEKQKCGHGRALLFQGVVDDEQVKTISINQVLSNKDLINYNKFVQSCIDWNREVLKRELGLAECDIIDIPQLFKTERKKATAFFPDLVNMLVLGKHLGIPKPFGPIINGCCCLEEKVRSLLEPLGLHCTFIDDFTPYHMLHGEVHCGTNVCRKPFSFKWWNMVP
Procedure: as §1

[4] = 1 h preincubation of peptide and PADI4, 10 mM CaCl2, read-out: IC50 Values 1 h preincubation
[5] = no preincubation of peptide and PADI4, 10 mM CaCl2, read-out: IC50 Values 0 h preincubation
[6] = T=0, values starred, read-out: PADI4 activity normalised to 0.1% DMSO
[7] = T=1, read-out: PADI4 activity normalised to 0.1% DMSO
[8] = T=0, read-out: PADI4 activity normalised to 0.1% DMSO

IC50 [1, 4]: 0.052 ± 0.002 µM
IC50 [1, 5]: 1.6 ± 0.03 µM
remaining activity at 0.003 µM [1, 6]: 95.7%
remaining activity at 0.003 µM [1, 7]: 87.4%
remaining activity at 0.01 µM [1, 6]: 92.2%
remaining activity at 0.01 µM [1, 7]: 88.3%
remaining activity at 0.03 µM [1, 8]: 95.8%
remaining activity at 0.03 µM [1, 7]: 81.5%
remaining activity at 0.1 µM [1, 8]: 88.7%
remaining activity at 0.3 µM [1, 8]: 82.7%
remaining activity at 1 µM [1, 8]: 61.2%
remaining activity at 3 µM [1, 8]: 32.3%
PADI2 activity normalised to 0.1% DMSO ([2]; 0.08 µM): 102.409 and 98.7439
PADI2 activity normalised to 0.1% DMSO ([2]; 0.24 µM): 101.533 and 89.4278
PADI2 activity normalised to 0.1% DMSO ([2]; 0.4 µM): 100.438 and 90.9979
PADI2 activity normalised to 0.1% DMSO ([2]; 1.2 µM): 102.409 and 98.4299
PADI2 activity normalised to 0.1% DMSO ([2]; 2 µM): 106.46 and 98.5345
PADI2 activity normalised to 0.1% DMSO ([2]; 6 µM): 102.299 and 92.9867
PADI2 activity normalised to 0.1% DMSO ([2]; 10 µM): 102.956 and 100.105
PADI2 activity normalised to 0.1% DMSO ([2]; 30 µM): 100.219 and 95.1849
PADI2 activity normalised to 0.1% DMSO ([2]; 50 µM): 83.0292 and 85.4501
PADI3 activity normalised to 0.1% DMSO ([3]; 0.08 µM): 106.942 and 103.941
PADI3 activity normalised to 0.1% DMSO ([3]; 0.24 µM): 100.503 and 99.2995
PADI3 activity normalised to 0.1% DMSO ([3]; 0.4 µM): 100.805 and 104.641
PADI3 activity normalised to 0.1% DMSO ([3]; 1.2 µM): 98.1891 and 97.8109
PADI3 activity normalised to 0.1% DMSO ([3]; 2 µM): 82.1932 and 92.0315
PADI3 activity normalised to 0.1% DMSO ([3]; 6 µM): 75.5533 and 73.7303
PADI3 activity normalised to 0.1% DMSO ([3]; 10 µM): 66.499 and 67.8634
PADI3 activity normalised to 0.1% DMSO ([3]; 30 µM): 30.8853 and 30.3853
PADI3 activity normalised to 0.1% DMSO ([3]; 50 µM): 18.8129 and 17.5131
IC50 ([3]; 60-minute time point, no preincubation): ~40 µM
selectivity for PADI4 over PADI3 [3]: Approximately 45 fold
Compound: CC(C)C[C@@H]1NC(=O)[C@H](CCCCN)NC(=O)[C@H](CO)NC(=O)[C@H](CO)NC(=O)[C@H](Cc2ccc(O)cc2)NC(=O)[C@H](Cc2c[nH]cn2)NC(=O)[C@H](CCCNC(=N)CF)NC(=O)[C@H](CC(=O)O)NC(=O)[C@H](CC(C)C)NC(=O)[C@@H](Cc2ccc(O)cc2)NC(=O)CSC[C@@H](C(=O)NCC(N)=O)NC(=O)[C@H](Cc2ccc(O)cc2)NC1=O [cP4_15, yLD(2)HYSSKLYCG] ({CH2CO}-[dY]LD[Orn(fluoroacetimidoyl)]HYSSKLYCG-NH2; thioether N-12)

IC50 [1, 4]: 0.07 ± 0.004 µM
IC50 [1, 5]: 4.4 ± 0.07 µM
remaining activity at 0.003 µM [1, 6]: 97.2%
remaining activity at 0.003 µM [1, 7]: 84.1%
remaining activity at 0.01 µM [1, 6]: 92.4%
remaining activity at 0.01 µM [1, 7]: 86.9%
remaining activity at 0.03 µM [1, 8]: 93.5%
remaining activity at 0.03 µM [1, 7]: 73.7%
remaining activity at 0.1 µM [1, 8]: 90.5%
remaining activity at 0.1 µM [1, 7]: 29.1%
remaining activity at 0.3 µM [1, 8]: 87.5%
remaining activity at 1 µM [1, 8]: 76.3%
remaining activity at 3 µM [1, 8]: 53.9%
remaining activity at 10 µM ([1]; peptide 10 µM, T=0, read-out: PADI4 activity normalised to 0.1% DMSO): 20.8%
remaining activity at 30 µM ([1]; peptide 30 µM, T=0, read-out: PADI4 activity normalised to 0.1% DMSO): 8.03%
PADI2 activity, normalised (Figure S11c) ([2]; cP4_4 0.08 µM): 99.789 and 100
PADI2 activity, normalised (Figure S11c) ([2]; cP4_4 0.24 µM): 95.7806 and 93.2203
PADI2 activity, normalised (Figure S11c) ([2]; cP4_4 0.4 µM): 102.532 and 106.78
PADI2 activity, normalised (Figure S11c) ([2]; cP4_4 1.2 µM): 102.954 and 112.106
PADI2 activity, normalised (Figure S11c) ([2]; cP4_4 2 µM): 97.2574 and 108.91
PADI2 activity, normalised (Figure S11c) ([2]; cP4_4 6 µM): 96.6245 and 106.586
PADI2 activity, normalised (Figure S11c) ([2]; cP4_4 10 µM): 98.7342 and 104.552
PADI2 activity, normalised (Figure S11c) ([2]; cP4_4 30 µM): 95.8861 and 92.155
PADI2 activity, normalised (Figure S11c) ([2]; cP4_4 50 µM): 84.8101 and 93.6077
selectivity for PADI4 over PADI3 [3]: 8 fold
PADI3 activity, normalised (Figure S11c) ([3]; cP4_4 0.08 µM): 98.438 and 99.5208 and 99.723
PADI3 activity, normalised (Figure S11c) ([3]; cP4_4 0.24 µM): 84.0122 and 99.425 and 100.739
PADI3 activity, normalised (Figure S11c) ([3]; cP4_4 0.4 µM): 91.6386 and 95.0168 and 95.5679
PADI3 activity, normalised (Figure S11c) ([3]; cP4_4 1.2 µM): 73.8132 and 78.438 and 79.5014
PADI3 activity, normalised (Figure S11c) ([3]; cP4_4 2 µM): 66.9219 and 70.5798
PADI3 activity, normalised (Figure S11c) ([3]; cP4_4 6 µM): 34.487 and 31.5764 and 37.6731
PADI3 activity, normalised (Figure S11c) ([3]; cP4_4 10 µM): 25.1148 and 25.0599 and 28.7165
PADI3 activity, normalised (Figure S11c) ([3]; cP4_4 30 µM): 13.6294 and 7.139 and 10.988
PADI3 activity, normalised (Figure S11c) ([3]; cP4_4 50 µM): 9.311 and 5.7978 and 6.279
Compound: N=C(N)NCCC[C@@H]1NC(=O)[C@H](CCCNC(=N)CF)NC(=O)[C@H](CC(=O)O)NC(=O)[C@H](Cc2ccc(O)cc2)NC(=O)[C@H](CCCCN)NC(=O)[C@H](CO)NC(=O)[C@@H](Cc2ccc(O)cc2)NC(=O)CSC[C@@H](C(=O)NCC(N)=O)NC(=O)[C@H](CC(=O)O)NC(=O)[C@H](CCCNC(=N)N)NC(=O)[C@@H]2CCCN2C(=O)[C@H](CO)NC1=O [cP4_4, ySKYD(2)RSPRDCG] ({CH2CO}-[dY]SKYD[Orn(fluoroacetimidoyl)]RSPRDCG-NH2; thioether N-12)
